Assay results reported in patent publication US10398663B2, “Mitochondrial delivery of 3-bromopyruvate” (priority 2014, dated 2019).

Experiments:
Type in all cases: cell-based, Human
PC3 cells [1] = assay: Lactate determination; conditions: 10 μM with respect to 3-BP, 6 h
Procedure: PC3 cells were seeded at a density of 1×10^6 cells/mL and allowed to grow for 12 h at 37° C. under 5% CO2. Cells were treated with T-AuNP (1 mg/mL), NT-AuNP (1 mg/mL), T-3-BP-AuNP (14.1 μg/mL with respect to NP, 10 μM with respect to 3-BP), NT-3-BP-AuNP (13.7 μg/mL with respect to NP, 10 μM with respect to 3-BP), free 3-BP (10 μM) for 6 h at 37° C. After 6 h, the media was removed and the cells were homogenized. The lysate and the media supernatant were added to the enzyme and substrate working reagent mixture and incubated for 30 min. Lactate concentration was measured using Bio-Tek Synergy HT microplate reader at 450 nm and comparing to a standard curve.

DU145 cells = assay: MTT assay, DU145 cells; conditions: with respect to 3-BP, 72 h
Procedure: (§1) Human prostate cancer PC3, DU145 cells and RAW 264.7 macrophages were procured from the American type culture collection (ATCC). DU145 cells were grown at 37° C. in 5% CO2 in Eagle's minimum essential medium (EMEM) supplemented with 10% fetal bovine serum (FBS) and 1% penicillin/streptomycin. PC3 cells were grown in Roswell Park Memorial Institute (RPMI) 1640 medium supplemented with 10% FBS and 1% penicillin/streptomycin. RAW 264.7 macrophages were cultured in RPMI media supplemented with 10% FBS and 1% penicillin/streptomycin. Cells were passed every 3 to 4 days and restarted from frozen stocks upon reaching pass number 20.
(§2) Cytotoxicity profiles of T-AuNPs, NT-AuNPs, T-3-BPAuNPs, NT-3-BP-AuNPs, and 3-BP were studied using the MTT assay against prostate cancer PC3 and DU145 cell lines. Cells (2000 cells/well) were seeded on a 96-well plate in 100 μL of desired medium and incubated for 24 h. The cells were then treated with different constructs at varying concentrations and incubated for 12 h at 37° C. and the media was changed. […] The medium was removed, the cells were lysed with 100 μL of DMSO, and the absorbance of the purple formazan was recorded at 550 nm using a Bio-Tek Synergy HT microplate reader and background absorbance was measured at 800 nm. […] Cytotoxicity was expressed as mean percentage […] relative to the unexposed control±standard deviation (SD). […]

PC3 cells [2] = assay: Bioenergetic assay (Seahorse XF24, ECAR and OCR); conditions: 10 μM with respect to 3-BP, 6 h
Procedure: Prior to the assay, XF sensor cartridges were hydrated. To each well of an XF utility plate, 1 mL of Seahorse Bioscience calibrant was added and the XF sensor cartridges were placed on top of the utility plate, and kept at 37° C. incubator without CO2 for a minimum of 12 h. PC3 cells were cultured in XF24-well cell culture microplates (Seahorse Bioscience) at a density of 5×10^4 cells/well (0.32 cm2) in 200 μL growth medium and then incubated for 24 h at 37° C. in 5% CO2 atmosphere. The three key parameters of glycolytic function: glycolysis, glycolytic capacity, and glycolytic reserve were assessed using a Seahorse XF glycolysis stress kit. After the cells were attached, an additional 100 μL growth medium was added and the cells were incubated for 24 h at 37° C. in 5% CO2 atmosphere. […] The OCR and the ECAR were measured simultaneously for 16 min to establish a baseline rate. Glycolysis, glycolytic capacity, and glycolytic reserve were calculated by subtracting the average rates before and after the addition of glucose (10 mM), ATP synthase inhibitor oligomycin (1.0 μM), and 2-deoxy-D-glucose (2-DG) (100 mM). These three compounds were injected consecutively with specific time gap and ECAR values were measured after each injection. […]

PC3 cells [3] = assay: MTT assay, PC3 cells; conditions: with respect to 3-BP, 72 h
Procedure: as §1, §2

PC3 cells [4] = assay: CellTiter-Glo luminescent ATP quantification; conditions: 10 μM with respect to 3-BP, 6 h
Procedure: PC3 cells were seeded at a density of 1×10^6 cells/mL in a 12 well plate and allowed to grow for 12 h at 37° C. under 5% CO2. Cells were treated with T-AuNP (1 mg/mL), NT-AuNP (1 mg/mL), T-3-BP-AuNP (14.1 μg/mL with respect to NP, 10 μM with respect to 3-BP), NT-3-BP-AuNP (13.7 μg/mL with respect to NP, 10 μM with respect to 3-BP), free 3-BP (10 μM) for 6 h at 37° C. in 5% CO2 atmosphere. Control wells containing medium without cells were used to obtain background luminescence value. Plates were then equilibrated at room temperature for ˜30 min. A volume of CellTiter-Glo reagent equal to the volume of cell culture medium present in each well was added, this mixtures were mixed for 2 min in a shaker to induce cell lysis. The plates were incubated at room temperature for additional 10 min to stabilize luminescent signal. Luminescence was recorded using a plate reader. ATP quantification was carried out from a standard curve using ATP disodium salt hydrate.

PC3 cells [5] = assay: Apoptosis detection by flow cytometry (Annexin V-PI); conditions: 6 h, dark
Procedure: PC3 cells were plated at a density of 1×10^6 cells/mL and allowed to grow for 14 h. Media was changed and cells were treated with T-AuNP (1 mg/mL), NT-AuNP (1 mg/mL), T-3-BP-AuNP (14.1 μg/mL with respect to NP, 10 μM with respect to 3-BP), NT-3-BP-AuNP (13.7 μg/mL with respect to NP, 10 μM with respect to 3-BP), free 3-BP (10 μM or 1 mM) for 6 h at 37° C. As positive controls, etoposide (100 μM, incubation time: 12 h) for apoptosis and H2O2 (1 mM, incubation time: 45 min) for necrosis were used. For apoptosis detection after laser treatment, cells were treated with T-AuNP (1 mg/mL), NT-AuNP (1 mg/mL), T-3-BP-AuNP (14.1 μg/mL with respect to NP, 10 μM with respect to 3-BP), NT-3-BP-AuNP (13.7 μg/mL with respect to NP, 10 μM with respect to 3-BP), free 3-BP (10 μM) for 4 h at 37° C., irradiated with laser of 660 nm for 1 min, and further incubated for 12 h. […] Cells were counted and resuspended in 1× annexinbinding buffer at a density of ˜1×10^6 cells/mL preparing a sufficient volume to have 100 μL per assay. To 100 μL of cell suspension, 5 μL Alexa Fluor® 488 annexin V and 1 μL 100 μg/mL PI working solution were added, incubated for 15 min at room temperature, followed by addition of 400 μL 1× annexin-binding buffer, gently mixing in ice, and the samples were analyzed on the flow cytometer immediately.

Question: How did the extracellular lactate level (PC3 cells [1]) turn out when O=C(O)C(=O)CBr [3-BP, 3-bromopyruvate] was run?
Answer: declined

Question: What about the intracellular lactate level (PC3 cells [1]) of the same compound?
Answer: declined

Question: What about the IC50 (DU145 cells) of the same compound?
Answer: 541 ± 37 µM

Question: What about the “glycolysis inhibition (ECAR response to glucose)” value (PC3 cells [2]) of the same compound?
Answer: did not show any glycolysis inhibitory effect

Question: What about the IC50 (PC3 cells [3]) of the same compound?
Answer: 271 ± 9 µM

Question: And the “level of ATP” value (PC3 cells [4])?
Answer: decrease

Question: And the apoptotic activity (PC3 cells [5]; 10 μM)?
Answer: unable to show any apoptotic activity

Question: What about the apoptotic activity (PC3 cells [5]; 1 mM) of the same compound?
Answer: significant apoptosis
